Results on one substance are retold here after paper PMC3930474 (Journal of controlled release : official journal of the …, 2013).

Series [1] concerns 4T1 tumors. The series is described as follows: Tumor homing / tumor extravasation of FAM-labeled peptides and conjugates. It is filed as in vivo, mouse. The conditions noted are these: FAM-labeled peptide i.v., three hours after the injection.
For series [2] the following is noted: mouse, in vivo, iv.
Series [3] relates to 4T1 tumors. In words: Evans Blue assay. In kind it is in vivo, mouse. As to conditions: mice.

In the case of CRGDK/RGPD/EC (disulfide) [iRGD], the “peptide signal in the tumors” value in series [1] was “had weakened”. The substance also returned a plasma half-life in series [2] of 8 min. Further, the “duration of the bystander effect after a bolus injection” value in series [3] is given as “less than one hour”.
